Source: US11945806B2, “Stabilization of amyloidogenic immunoglobulin light chains” (The Scripps Research Institute, priority 2019, dated 2024)

The molecules below were run against WIL-FL (Homo sapiens, UniProt P01721) (assay: Unlabeled LC Protease Sensitivity Assay (proteinase K)). Conditions: small molecule 10 μM, WIL-FL 5 μM, proteinase K 50 nM, 2 hours at 37° C.
Type: biochemical
Description: Unlabeled LC Protease Sensitivity Assay. WIL-FL (5 μM) in phosphate-buffered saline (PBS, pH 7.4)+0.02% Pluronic F-127 was incubated with proteinase K (50 nM) with small molecule (10 μM) in 1% DMSO vehicle, or vehicle alone. After 2 hours at 37° C., reactions were quenched with 2 mM phenylmethyl sulfonyl fluoride in methanol and centrifuged at 14,000 rpm for 2 minutes. Remaining WIL-FL was quantified by injecting 10 μL of the supernatant into a Waters Acquity H-Class Bio-UPLC (ultra performance liquid chromatography) instrument equipped with a BEH200 analytical size-exclusion column (1.7 μm, 4.6×150 mm) under isocratic conditions (0.2 mL/min, PBS+1 mM EDTA, 2400 psi backpressure, 15 min), monitoring absorbance at 280 nm. Activity of each compound is given as fold protection from protease=(A_compound−A_vehicle)/(A_no_protease−A_vehicle), where each “A” corresponds to peak integration of the respective treatment.
In the case of `CCN(CC)c1ccc2c(C)c(CCC(=O)NCCc3cccc(F)c3)c(=O)oc2c1` [Compound 72], the “Protection (fold protection of LC from protease)” value is reported as “A (A < 0.3))”. In the case of `CCN(CC)c1ccc2c(C)c(CCC(=O)NCCc3ccc(F)cc3)c(=O)oc2c1` [Compound 73], the “Protection (fold protection of LC from protease)” value is reported as “A (A < 0.3))”. In the case of `CCN(CC)c1ccc2c(C)c(CCC(=O)NCCc3ccncc3)c(=O)oc2c1` [Compound 76], the “Protection (fold protection of LC from protease)” value is reported as “A (A < 0.3))”. With `CCN(CC)c1ccc2c(C)c(CCOC(=O)NCc3ccccc3)c(=O)oc2c1` [Compound 78, 2-(7-(diethylamino)-4-methyl-2-oxo-2H-chromen-3-yl)ethyl benzylcarbamate] the “Protection (fold protection of LC from protease)” value was “A (A < 0.3))”. For `CCN(CC)c1ccc2c(C)c(CCOC(=O)NC)c(=O)oc2c1` [Compound 79, 2-(7-(diethylamino)-4-methyl-2-oxo-2H-chromen-3-yl)ethyl methylcarbamate], the “Protection (fold protection of LC from protease)” value was “A (A < 0.3))”. For `CCN(CC)c1ccc2c(C)c(CCOC(=O)NCCc3ccccc3)c(=O)oc2c1` [Compound 80, 2-(7-(diethylamino)-4-methyl-2-oxo-2H-chromen-3-yl)ethyl phenethylcarbamate], the “Protection (fold protection of LC from protease)” value was “A (A < 0.3))”. For `CCN(CC)c1ccc2c(C)c(CCOC(=O)NCCCc3ccccc3)c(=O)oc2c1` [Compound 81, 2-(7-(diethylamino)-4-methyl-2-oxo-2H-chromen-3-yl)ethyl (3-phenylpropyl)carbamate], the “Protection (fold protection of LC from protease)” value was “A (A < 0.3))”. For `CCN(CC)c1ccc2c(C)c(CCOC(=O)NCCc3ccccn3)c(=O)oc2c1` [Compound 82, 2-(7-(diethylamino)-4-methyl-2-oxo-2H-chromen-3-yl)ethyl (2-(pyridin-2-yl)ethyl)carbamate], the “Protection (fold protection of LC from protease)” value was “A (A < 0.3))”. With `CCN(CC)c1ccc2c(C)c(CCOC(=O)NCCc3cccnc3)c(=O)oc2c1` [Compound 83, 2-(7-(diethylamino)-4-methyl-2-oxo-2H-chromen-3-yl)ethyl (2-(pyridin-3-yl)ethyl)carbamate] the “Protection (fold protection of LC from protease)” value was “A (A < 0.3))”. For `CCN(CC)c1ccc2c(C)c(CCOC(=O)NCCc3ccncc3)c(=O)oc2c1` [Compound 84, 2-(7-(diethylamino)-4-methyl-2-oxo-2H-chromen-3-yl)ethyl (2-(pyridin-4-yl)ethyl)carbamate], the “Protection (fold protection of LC from protease)” value was “A (A < 0.3))”. With `CCN(CC)c1ccc2c(C)c(CCOC(=O)NCc3ccccn3)c(=O)oc2c1` [Compound 85, 2-(7-(diethylamino)-4-methyl-2-oxo-2H-chromen-3-yl)ethyl (pyridin-2-ylmethyl)carbamate] the “Protection (fold protection of LC from protease)” value was “B (3 ≤ B < 0.6)”. In the case of `CCN(CC)c1ccc2c(C)c(CCOC(=O)NCc3ccncc3)c(=O)oc2c1` [Compound 86, 2-(7-(diethylamino)-4-methyl-2-oxo-2H-chromen-3-yl)ethyl (pyridin-4-ylmethyl)carbamate], the “Protection (fold protection of LC from protease)” value is reported as “B (3 ≤ B < 0.6)”. With `CCN(CC)c1ccc2c(C)c(CCOC(=O)NCc3ccco3)c(=O)oc2c1` [Compound 87, 2-(7-(diethylamino)-4-methyl-2-oxo-2H-chromen-3-yl)ethyl (furan-2-ylmethyl)carbamate] the “Protection (fold protection of LC from protease)” value was “B (3 ≤ B < 0.6)”. With `CCN(CC)c1ccc2c(C)c(CCOC(=O)NCCc3cnc[nH]3)c(=O)oc2c1` [Compound 88, 2-(7-(diethylamino)-4-methyl-2-oxo-2H-chromen-3-yl)ethyl (2-(1H-imidazol-4-yl)ethyl)carbamate] the “Protection (fold protection of LC from protease)” value was “B (3 ≤ B < 0.6)”. `CCN(CC)c1ccc2c(C)c(CCOC(=O)NCc3cccnc3)c(=O)oc2c1` [Compound 89, 2-(7-(diethylamino)-4-methyl-2-oxo-2H-chromen-3-yl)ethyl (pyridin-3-ylmethyl)carbamate] was tested, and the “Protection (fold protection of LC from protease)” value was “C (C ≥ 0.6)”. In the case of `CCN(CC)c1ccc2c(C)c(CCOC(=O)NCc3ccncn3)c(=O)oc2c1` [Compound 90, 2-(7-(diethylamino)-4-methyl-2-oxo-2H-chromen-3-yl)ethyl (pyrimidin-4-ylmethyl)carbamate], the “Protection (fold protection of LC from protease)” value is reported as “A (A < 0.3))”.
